Tests used:
Details in all cases: stereoisomer not certain
[1] = RP, Phenomenex Synergi Polar-RP, 100 × 3 mm, 2.5 µm, 40 °C, 0.4 mL/min, estimated dead time 1.1 min; A: water + 1 mM ammonium fluoride; B: methanol + 1 mM ammonium fluoride; C: acetonitrile; D: 50% isopropanol + 50% acetone; gradient (min/%B/%C/%D) 0/5/0/0 2/5/0/0 8/95/0/0 12/80/15/0 19/25/70/0 19.5/0/25/70 21.5/0/25/70 22.5/0/25/0 23/5/0/0
[2] = RP, Waters ACQUITY UPLC BEH C18, 100 × 1 mm, 1.7 µm, 50 °C, 0.3 mL/min, estimated dead time 0.17 min; A: water + 10 mM ammonium bicarbonate; B: 10% water + 90% methanol + 10 mM ammonium bicarbonate; gradient (min/%B) 0/0 15/100 21/100 22/0 30/0
[3] = RP, Waters ACQUITY UPLC BEH C18, 100 × 1 mm, 1.7 µm, 50 °C, 0.3 mL/min, estimated dead time 0.17 min; A: water + 0.1% formic acid + 20 mM ammonium formate; B: methanol + 0.1% formic acid + 20 mM ammonium formate; gradient (min/%B) 0/0 15/100 21/100 22/0 30/0

LC retention time [1] [min] | LC retention time [2] [min] | LC retention time [3] [min] | Compound
6.31 | – | – | O=S(=O)(O)c1nc2ccccc2s1 [2-Benzothiazolesulfonic acid]
2.53 | – | – | O=c1cc[nH]c(=S)[nH]1 [2-thiouracil]
7 | – | – | Oc1cccc2n[nH]nc12 [4-Hydroxybenzotriazole]
8.97 | – | – | O=S(=O)(O)CCC(F)(F)C(F)(F)C(F)(F)C(F)(F)C(F)(F)C(F)(F)F [6-2fluorotelomer sulfonic acid]
3.32 | – | – | S=c1nc[nH]c2nc[nH]c12 [6-Mercaptopurine]
1.48 | – | – | Nc1ccc(S(=O)(=O)O)c(N)c1 [24-diaminobenzenesulfonic acid]
1.65 | – | – | O=S(=O)(O)c1ccc2ccc(S(=O)(=O)O)cc2c1 [27-Naphthalenedisulfonic acid]
1.82 | – | – | O=C(O)Cc1ccc(S(=O)(=O)O)cc1 [(4-Sulfophenyl)acetic acid]
3.17 | – | – | Nc1nc2c(ncn2COCCO)c(=O)[nH]1 [Acyclovir]
10.4 | – | – | CC(C)c1c(C(=O)Nc2ccccc2)c(-c2ccccc2)c(-c2ccc(F)cc2)n1CCC(O)CC(O)CC(=O)O (configuration not stated) [Atorvastatin]
8.32 | – | – | COc1cc(O)c(C(=O)c2ccccc2)cc1S(=O)(=O)O [Benzophenone-4]
9.33 | – | – | CC(C)(Oc1ccc(CCNC(=O)c2ccc(Cl)cc2)cc1)C(=O)O [Bezafibrate]
– | 12.4 | 11.6 | Cc1cccc(Nc2ccncc2S(=O)(=O)NC(=O)NC(C)C)c1 [Torasemide]
– | 9.54 | 9.42 | CC(=O)OCC(COC(C)=O)OC(C)=O [Triacetin]
– | 10.1 | 10 | CC12C=CC(=O)C=C1CCC1C3CC(O)C(O)(C(=O)CO)C3(C)CC(O)C12F (configuration not stated) [Triamcinolone]
– | 9.67 | 11.5 | COc1nc(C)nc(NC(=O)NS(=O)(=O)c2ccccc2OCCCl)n1 [Triasulfuron]
– | 12.1 | 11.9 | CCOC(=O)CC(O)(CC(=O)OCC)C(=O)OCC [Triethylcitrate]
– | 17.8 | 12.9 | CC(CN(C)C)CN1c2ccccc2CCc2ccccc21 (configuration not stated) [Trimipramine]
– | 12.5 | 6.53 | CCCN(CCC)CCC [Tripropylamine]

LC retention time [1] [min] | LC retention time [2] [min] | LC retention time [3] [min] | Compound
– | 14.6 | 14.4 | CC(Cl)COP(=O)(OCC(C)Cl)OCC(C)Cl (configuration not stated) [Tris(2-chloropropyl) phosphate]
– | 11.9 | 13.8 | COc1nc(NC(=O)NS(=O)(=O)c2ccccc2C(F)(F)F)nc(C(F)(F)F)n1 [Tritosulfuron]
– | 15.5 | 13.1 | CCC1OC(=O)CC(O)C(C)C(OC2OC(C)C(OC3CC(C)(O)C(O)C(C)O3)C(N(C)C)C2O)C(CC=O)CC(C)C(=O)C=CC(C)=CC1COC1OC(C)C(O)C(OC)C1OC (configuration not stated) [Tylosin]
– | 6.78 | 8.73 | O=c1ccc2ccc(O)cc2o1 [Umbelliferone]
– | 7.16 | 5.17 | CC(C)C(N)C(=O)OCC(CO)OCn1cnc2c(=O)[nH]c(N)nc21 (configuration not stated) [Valganciclovir]
– | 10.2 | 14.2 | CCCC(CCC)C(=O)O [Valproic acid]
– | 8.6 | 7.04 | CNC(CC(C)C)C(=O)NC1C(=O)NC(CC(N)=O)C(=O)NC2C(=O)NC3C(=O)NC(C(=O)NC(C(=O)O)c4cc(O)cc(O)c4-c4cc3ccc4O)C(O)c3ccc(c(Cl)c3)Oc3cc2cc(c3OC2OC(CO)C(O)C(O)C2OC2CC(C)(N)C(O)C(C)O2)Oc2ccc(cc2Cl)C1O (configuration not stated) [Vancomycin]
– | 14.8 | 12.2 | CCCc1nc(C)c2c(=O)[nH]c(-c3cc(S(=O)(=O)N4CCN(CC)CC4)ccc3OCC)nn12 [Vardenafil]
– | 15.9 | 12.4 | COc1ccc(CCN(C)CCCC(C#N)(c2ccc(OC)c(OC)c2)C(C)C)cc1OC (configuration not stated) [Verapamil]
– | 10.1 | 6.31 | N#CC1CCCN1C(=O)CNC12CC3CC(CC(O)(C3)C1)C2 (configuration not stated) [Vildagliptin]
– | 14.6 | 9.43 | CCC12CCCN3CCc4c(n(c5ccccc45)C(O)(C(=O)OC)C1)C32 (configuration not stated) [Vincamin]
– | 14.1 | 9.26 | COC(=O)C1C(O)CCC2CN3CCc4c([nH]c5ccccc45)C3CC21 (configuration not stated) [Yohimbine]
– | 16.1 | 11.3 | O=C1Cc2cc(CCN3CCN(c4nsc5ccccc45)CC3)c(Cl)cc2N1 [Ziprasidone]
– | 7 | 6.99 | O=C1CCCCCN1 [epsilon-Caprolactam]
– | 9.58 | 9.47 | OC(Cn1cncn1)(Cn1cncn1)c1ccc(F)cc1F [fluconazole]
– | 11.6 | 11.4 | Nc1c(Cl)cnn(-c2ccccc2)c1=O [iso-Chloridazon]
– | 7.83 | 7.92 | Cc1ccc(S(=O)(=O)O)c(C)c1 [m-Xylene-4-sulfonic acid]
– | 7.5 | 8.16 | CCn1cc(C(=O)O)c(=O)c2cc(F)c(N3CCNCC3)cc21 [norfloxacin]

Compound | LC retention time [1] [min] | LC retention time [2] [min] | LC retention time [3] [min]
Oc1ccc(Cl)cc1Cl [24-Dichlorophenol] | 8.49 | – | –
O=C(O)COc1ccc(Cl)cc1Cl [24-Dichlorophenoxyacetic acid] | 8.06 | – | –
O=[N+]([O-])c1ccc(O)c([N+](=O)[O-])c1 [24-Dinitrophenol] | 7.62 | – | –
Oc1cc(Cl)c(Cl)c(Cl)c1 [345-trichlorophenol] | 10.8 | – | –
O=c1[nH]c(Cl)c(Cl)cc1Cl [356-Trichloro-2-pyridinol] | 9.23 | – | –
CC(=O)c1cc2c(cc1C)C(C)(C)C(C)C2C(C)C (configuration not stated) [Traseolide] | – | 18.2 | 17.8
CC12C=CC3=C4CCC(=O)C=C4CCC3C1CCC2O (configuration not stated) [Trenbolone] | – | 13.6 | 13.4
CC(C)N(C(=O)SCC(Cl)=C(Cl)Cl)C(C)C [Triallate] | – | 17.7 | 17.3
COC(=O)c1ccccc1S(=O)(=O)NC(=O)N(C)c1nc(C)nc(OC)n1 [Tribenuron-methyl] | – | 9.4 | 12.8
Cc1ccc(OP(=O)(Oc2ccc(C)cc2)Oc2ccc(C)cc2)cc1 [Tricresylphosphate] | – | 17.7 | 17.3
Cc1cccc2sc3nncn3c12 [Tricyclazole] | – | 10.4 | 10.3
CNC(=O)C(C)SCCSP(=O)(OC)OC (configuration not stated) [Vamidothion (Vamidoate)] | – | 9.45 | 9.33
CC1CCCC(=O)CCCC=Cc2cc(O)cc(O)c2C(=O)O1 (configuration not stated) [Zearalenone] | – | 14.1 | 14.4
CC1=C2C3OC(=O)C(C)C3CCC2(C)C=CC1=O (stereo not drawn) [alpha-Santonin] | – | 11.5 | 11.3
CC1CCCC(O)CCCC=Cc2cc(O)cc(O)c2C(=O)O1 (stereo not drawn) [beta Zearalenol] | – | 13.3 | 13.4

From the RepoRT retention time repository (doi:10.1021/acs.analchem.1c00972)
